From patent US20240376073A1 (Hoffmann-La Roche Inc., priority 2021, published 2024)
Counter-ions that a name gives are not always drawn. Like-named read-outs stand apart in the source and are kept apart here.

System: Acinetobacter baumannii ATCC17961
Assay: Antimicrobial susceptibility testing: 90% growth inhibitory concentration (IC90) determination
Format: cell-based
Settings: Iso-Sensitest broth, growth by OD 600 nm over 16 h, 35±2° C.
Protocol: The in vitro antimicrobial activity of the compounds was determined according to the following procedure:
The assay used a 10-points Iso-Sensitest broth medium to measure quantitatively the in vitro activity of the compounds against Acinetobacter baumannii ATCC17961.
Stock compounds in DMSO were serially twofold diluted (e.g. range from 50 to 0.097 μM final concentration) in 384 wells microtiter plates and inoculated with 49 μl the bacterial suspension in Iso-Sensitest medium to have a final cell concentration of ˜5×10^(5) CFU/ml in a final volume/well of 50 ul/well. Microtiter plates were incubated at 35±2° C.
Bacterial cell growth was determined with the measurement of optical density at λ=600 nm each 20 minutes over a time course of 16 h. Growth inhibition was calculated during the logarithmic growth of the bacterial cells with determination of the concentration inhibiting 50% (IC50) and 90% (IC90) of the growth.
Table 1 provides the […] growth inhibitory concentrations (IC90) in micromoles per liter of the compounds of present invention obtained against the strain Acinetobacter baumannii ATCC17961.

[1] = Acinetobacter baumannii ATCC17961, read-out: ATCC 17961 IC90

SMILES | IC90 [1] | IC90 (Acinetobacter baumannii, ATCC17961, 16 h, read-out: ATCC 17961 IC90, Acinetobacter baumannii ATCC17961)
Cc1cc(NC(=O)c2ncc(-c3ccc(OCC#N)c(F)c3F)n2C)ccc1C(=O)N[C@H]1C[C@@H](NC(=O)C[N+](C)(C)C)C1 [Example A18, [2-[[3-[[4-[5-[4-(cyanomethoxy)-2,3-difluoro-phenyl]-1-methyl-imidazole-2-carbonyl]amino]-2-methyl-benzoyl]amino]cyclobutyl]amino]-2-oxo-ethyl]-trimethyl-ammonium formate] | 240 nM | –
Cc1cc(NC(=O)c2ncc(-c3ccc(OCC#N)c(F)c3F)n2C)ccc1C(=O)N[C@H]1C[C@@H](NCC[N+](C)(C)C)C1 [Example A19, 2-[[3-[[4-[[5-[4-(cyanomethoxy)-2,3-difluoro-phenyl]-1-methyl-imidazole-2-carbonyl]amino]-2-methyl-benzoyl]amino]cyclobutyl]amino]ethyl-trimethyl-ammonium formate] | 1200 nM | –
COc1ccc(-c2cnc(C(=O)Nc3ccc(C(=O)NCc4cn(CCCO)[n+](C)c4)c(Cl)c3)n2C)c(F)c1F [Example A21, N-[3-chloro-4-[1-(3-hydroxypropyl)-2-methyl-pyrazol-2-ium-4-yl]methylcarbamoyl]phenyl]-5-(2,3-difluoro-4-methoxy-phenyl)-1-methyl-imidazole-2-carboxamide; formate] | 330 nM | –
COc1ccc(-c2cnc(C(=O)Nc3ccc(C(=O)NCc4cn(CCC#N)[n+](C)c4)c(Cl)c3)n2C)c(F)c1F [Example A22, N-[3-chloro-4-[1-(2-cyanoethyl)-2-methyl-pyrazol-2-ium-4-yl]methylcarbamoyl]phenyl]-5-(2,3-difluoro-4-methoxy-phenyl)-1-methyl-imidazole-2-carboxamide; formate] | 390 nM | –
COc1ccc(-c2cnc(C(=O)Nc3ccc(C(=O)NCc4cn(CC(N)=O)[n+](C)c4)c(Cl)c3)n2C)c(F)c1F [Example A23, N-[4-[1-(2-amino-2-oxo-ethyl)-2-methyl-pyrazol-2-ium-4-yl]methylcarbamoyl]-3-chloro-phenyl]-5-(2,3-difluoro-4-methoxy-phenyl)-1-methyl-imidazole-2-carboxamide; formate] | 400 nM | –
COc1ccc(-c2cnc(C(=O)Nc3ccc(C(=O)NCc4cn(CCS(C)(=O)=O)[n+](C)c4)c(Cl)c3)n2C)c(F)c1F [Example A24, N-[3-chloro-4-[[1-methyl-2-(2-methylsulfonylethyl)pyrazol-1-ium-4-yl]methylcarbamoyl]phenyl]-5-(2,3-difluoro-4-methoxy-phenyl)-1-methyl-imidazole-2-carboxamide; formate] | – | 350 nM
COCCCn1cc(CNC(=O)c2ccc(NC(=O)c3ncc(-c4ccc(OC)c(F)c4F)n3C)cc2Cl)c[n+]1C [Example A25, N-[3-chloro-4-[1-(3-methoxypropyl)-2-methyl-pyrazol-2-ium-4-yl]methylcarbamoyl]phenyl]-5-(2,3-difluoro-4-methoxy-phenyl)-1-methyl-imidazole-2-carboxamide; formate] | 410 nM | –
COc1ccc(-c2cnc(C(=O)Nc3ccc(C(=O)NCc4cn(CCOCCO)[n+](C)c4)c(Cl)c3)n2C)c(F)c1F [Example A26, N-[3-chloro-4-[1-[2-(2-hydroxyethoxy)ethyl]-2-methyl-pyrazol-2-ium-4-yl]methylcarbamoyl]phenyl]-5-(2,3-difluoro-4-methoxy-phenyl)-1-methyl-imidazole-2-carboxamide; formate] | 410 nM | –

Continued, in another order:

IC90 [1] | SMILES | IC90 (Acinetobacter baumannii, ATCC17961, 16 h, read-out: ATCC 17961 IC90, Acinetobacter baumannii ATCC17961)
770 nM | Cn1c(-c2ccc(OCC#N)c(F)c2F)cnc1C(=O)Nc1ccc(C(=O)NCCOCC[N+](C)(C)C)c(Cl)c1 [Example A15, 2-[2-[[2-chloro-4-[[5-[4-(cyanomethoxy)-2,3-difluoro-phenyl]-1-methyl-imidazole-2-carbonyl]amino]benzoyl]amino]ethoxy]ethyl-trimethyl-ammonium formate] | –
88 nM | Cn1c(-c2ccc(OCC#N)c(F)c2F)cnc1C(=O)Nc1ccc(C(=O)N[C@H]2C[C@@H](NC(=O)C[N+](C)(C)C)C2)c(Cl)c1 [Example A16, [2-[[3-[2-chloro-4-[[5-[4-(cyanomethoxy)-2,3-difluoro-phenyl]-1-methyl-imidazole-2-carbonyl]amino]benzoyl]amino]cyclobutyl]amino]-2-oxo-ethyl]-trimethyl-ammonium formate] | –
340 nM | Cn1c(-c2ccc(OCC#N)c(F)c2F)cnc1C(=O)Nc1ccc(C(=O)N[C@H]2C[C@@H](NCC[N+](C)(C)C)C2)c(Cl)c1 [Example A17, 2-[[3-[[2-chloro-4-[[5-[4-(cyanomethoxy)-2,3-difluoro-phenyl]-1-methyl-imidazole-2-carbonyl]amino]benzoyl]amino]cyclobutyl]amino]ethyl-trimethyl-ammonium formate] | –
320 nM | COc1ccc(-c2cnc(C(=O)Nc3ccc(C(=O)NCc4cn(CCO)[n+](C)c4)c(Cl)c3)n2C)c(F)c1F [Example A20, N-[3-chloro-4-[[1-(2-hydroxyethyl)-2-methyl-pyrazol-2-ium-4-yl]methylcarbamoyl]phenyl]-5-(2,3-difluoro-4-methoxy-phenyl)-1-methyl-imidazole-2-carboxamide;formate] | –
56 nM | COc1ccc(-c2cnc(C(=O)Nc3ccc(C(=O)NCc4cnc(NC(=O)[C@@H]5C[C@@H](O)C[N+]5(C)C)s4)c(Cl)c3)n2C)c(F)c1F [Example A27, N-[3-chloro-4-[[2-[[(2S,4R)-4-hydroxy-1,1-dimethyl-pyrrolidin-1-ium-2-carbonyl]amino]thiazol-5-yl]methylcarbamoyl]phenyl]-5-(2,3-difluoro-4-methoxy-phenyl)-1-methyl-imidazole-2-carboxamide; formate] | –
88 nM | COc1ccc(-c2cnc(C(=O)Nc3ccc(C(=O)NCc4cnc(NC(=O)C5CCC[N+]5(C)C)s4)c(Cl)c3)n2C)c(F)c1F (centres unmarked) [Example A28, N-[3-chloro-4-[2-[(1,1-dimethylpyrrolidin-1-ium-2-carbonyl)amino]thiazol-5-yl]methylcarbamoyl]phenyl]-5-(2,3-difluoro-4-methoxy-phenyl)-1-methyl-imidazole-2-carboxamide; formate] | –
170 nM | COc1ccc(-c2cnc(C(=O)Nc3ccc(C(=O)NCc4cnc(NC(=O)C5CC[N+](C)(C)CC5)s4)c(Cl)c3)n2C)c(F)c1F [Example A29, N-[5-[2-chloro-4-[[5-(2,3-difluoro-4-methoxy-phenyl)-1-methyl-imidazole-2-carbonyl]amino]benzoyl]amino]methyl]thiazol-2-yl]-1,1-dimethyl-piperidin-1-ium-4-carboxamide; formate] | –
140 nM | COc1ccc(-c2cnc(C(=O)Nc3ccc(C(=O)NCc4cnc(NC(=O)C5CC[N+](C)(CC(N)=O)CC5)s4)c(Cl)c3)n2C)c(F)c1F (centres unmarked) [Example A30, 1-(2-amino-2-oxo-ethyl)-N-[5-[[[2-chloro-4-[[5-(2,3-difluoro-4-methoxy-phenyl)-1-methyl-imidazole-2-carbonyl]amino]benzoyl]amino]methyl]thiazol-2-yl]-1-methyl-piperidin-1-ium-4-carboxamide; formate] | –
170 nM | COc1ccc(-c2cnc(C(=O)Nc3ccc(C(=O)N4CCC(C(=O)NCc5cnc(NC(=O)C6CC[N+](C)(C)CC6)s5)CC4)c(Cl)c3)n2C)c(F)c1F [Example A31, N-[5-[[1-[2-chloro-4-[[5-(2,3-difluoro-4-methoxy-phenyl)-1-methyl-imidazole-2-carbonyl]amino]benzoyl]piperidine-4-carbonyl]amino]methyl]thiazol-2-yl]-1,1-dimethyl-piperidin-1-ium-4-carboxamide; formate] | –
